*1 amine or outer side, *2 acyl side, *3 side chain or, on linkers, in order; H or OH if unused. Where a SMILES comes first, the peptide text is derived from it. [ ]: non-standard residue; d: D form. The star is where a group is joined. Sta = CC(C)C[C@H](N)[C@@H](O)CC(=O)O; AMC = Cc1cc(=O)oc2cc(N*)ccc12; Suc = O=C(CCC(=O)[*:2])[*:1]; Isovaleryl = CC(C)CC(=O)*; Boc = CC(C)(C)OC(=O)*
Assays:
Type in all cases: biochemical
miniplasmin [1] = target: T1, miniplasmin (Homo sapiens, UniProt P00747); assay: biochemical
T1 construct: 38kDa (Kringle 5 + L chain); the 12kDa protein of human miniplasmin includes a kringle 5 that begins with V^441; host or cells: no expression host
T1 sequence (P00747 481-560): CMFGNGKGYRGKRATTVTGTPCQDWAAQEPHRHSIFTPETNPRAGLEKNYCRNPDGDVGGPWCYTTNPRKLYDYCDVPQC
T1 sequence (P00747 581-810): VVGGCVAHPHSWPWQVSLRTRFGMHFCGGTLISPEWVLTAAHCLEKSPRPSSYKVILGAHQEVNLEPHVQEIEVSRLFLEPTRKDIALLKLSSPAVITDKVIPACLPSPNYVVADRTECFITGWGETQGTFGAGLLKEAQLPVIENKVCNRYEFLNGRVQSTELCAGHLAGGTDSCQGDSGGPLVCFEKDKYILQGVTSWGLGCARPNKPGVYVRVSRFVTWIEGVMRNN

miniplasmin [2] = target: T1, miniplasmin
miniplasmin [3] = target: T1, miniplasmin; assay: Substrate specificity of human miniplasmin (cleavage of fluorescent MCA synthetic substrates); details: for Activity (mU/ml): cleavage of the named substrate by human miniplasmin; for cleaving activity of miniplasmin toward the substrate: result in words
Experimental: 2. […] Miniplasmin cut the bond after Arg.
Nor did it toward Bz-Arg-MCA, a synthetic substrate for cathepsin B, which is one of lysosomal enzymes.
The activity of miniplasmin was quantified by defining the enzyme activity that can degrade […] of the synthetic substrate Boc-Glu-Ala-Arg-MCA in 1 minute as 1 unit.

miniplasmin [4] = target: T1, miniplasmin; assay: as above; details: Boc-Gln-Ala-Arg-MCA = 100%

## N=C(N)c1ccccc1 [Benzamidine]
Miniplasmin [1]
  inhibition mark (circle / double circle): ○ Benzamidine
Miniplasmin [1]; read-out: Relative activity
  activity at 10 µM: 67.6%
  activity at 1000 µM: 22.9%
Miniplasmin [2]
  transformation of F0 into F1 and F2: substantially prevented

## Cc1cc(=O)oc2cc(NC(=O)[C@H](CCCNC(=N)N)NC(=O)[C@@H]3CCCN3C(=O)CNC(=O)[C@H](C)NC(=O)OC(C)(C)C)ccc12 [Boc-Ala-Gly-Pro-Arg-MCA] (Boc-AGPR-{AMC})
Miniplasmin [3]
  Activity (mU/ml): 2.5 mU/ml

## Cc1cc(=O)oc2cc(NC(=O)[C@H](CCCNC(=N)N)NC(=O)[C@H](C)NC(=O)[C@H](CCC(N)=O)NC(=O)OC(C)(C)C)ccc12 [Boc-Gln-Ala-Arg-MCA] (Boc-Gln-Ala-Arg-{AMC})
Miniplasmin [3]
  Activity (mU/ml): 32.3 mU/ml

## Cc1cc(=O)oc2cc(NC(=O)[C@H](CCCNC(=N)N)NC(=O)[C@H](CCCNC(=N)N)NC(=O)[C@H](CCC(N)=O)NC(=O)OC(C)(C)C)ccc12 [Boc-Gln-Arg-Arg-MCA] (Boc-Gln-Arg-Arg-{AMC})
Miniplasmin [3]
  Activity (mU/ml): 16.1 mU/ml

## Cc1cc(=O)oc2cc(NC(=O)[C@H](CCCNC(=N)N)NC(=O)CNC(=O)[C@H](CCC(N)=O)NC(=O)OC(C)(C)C)ccc12 [Boc-Gln-Gly-Arg-MCA] (Boc-Gln-Gly-Arg-{AMC})
Miniplasmin [3]
  Activity (mU/ml): 8.1 mU/ml

## Cc1cc(=O)oc2cc(NC(=O)[C@H](CCCCN)NC(=O)[C@H](CCCCN)NC(=O)[C@H](CCC(=O)O)NC(=O)OC(C)(C)C)ccc12 [Boc-Glu-Lys-Lys-MCA] (Boc-Glu-Lys-Lys-{AMC})
Miniplasmin [3]
  Activity (mU/ml): 50.3 mU/ml
  cleaving activity of miniplasmin toward the substrate: highest cleaving activity

## Cc1cc(=O)oc2cc(NC(=O)[C@H](CCCNC(=N)N)NC(=O)[C@H](CCCCN)NC(=O)CNC(=O)OC(C)(C)C)ccc12 [Boc-Gly-Lys-Arg-MCA] (Boc-Gly-Lys-Arg-{AMC})
Miniplasmin [3]
  Activity (mU/ml): 3.1 mU/ml

## Cc1cc(=O)oc2cc(NC(=O)[C@H](CCCNC(=N)N)NC(=O)[C@H](CCCNC(=N)N)NC(=O)[C@H](CC(C)C)NC(=O)OC(C)(C)C)ccc12 [Boc-Leu-Arg-Arg-MCA] (Boc-Leu-Arg-Arg-{AMC})
Miniplasmin [3]
  Activity (mU/ml): 3.1 mU/ml

## Cc1cc(=O)oc2cc(NC(=O)[C@H](CCCNC(=N)N)NC(=O)[C@@H](NC(=O)[C@H](CC(C)C)NC(=O)OC(C)(C)C)[C@@H](C)O)ccc12 [Boc-Leu-Thr-Arg-MCA] (Boc-Leu-Thr-Arg-{AMC})
Miniplasmin [3]
  Activity (mU/ml): 3.4 mU/ml

## Cc1cc(=O)oc2cc(NC(=O)[C@H](CCCNC(=N)N)NC(=O)[C@H](CO)NC(=O)[C@H](Cc3ccccc3)NC(=O)OC(C)(C)C)ccc12 [Boc-Phe-Ser-Arg-MCA] (Boc-Phe-Ser-Arg-{AMC})
Miniplasmin [3]
  Activity (mU/ml): 5.0 mU/ml

## Cc1cc(=O)oc2cc(NC(=O)[C@H](CCCCN)NC(=O)[C@H](CC(C)C)NC(=O)[C@@H](NC(=O)OC(C)(C)C)C(C)C)ccc12 [Boc-Val-Leu-Lys-MCA] (Boc-Val-Leu-Lys-{AMC})
Miniplasmin [3]
  Activity (mU/ml): 17.7 mU/ml
Miniplasmin [4]
  % (Activity as a percentage of that with Boc-Gln-Ala-Arg-MCA): 54.8%

## Cc1cc(=O)oc2cc(NC(=O)[C@H](CCCNC(=N)N)NC(=O)[C@@H]3CCCN3C(=O)[C@@H](NC(=O)OC(C)(C)C)C(C)C)ccc12 [Boc-Val-Pro-Arg-MCA] (Boc-Val-Pro-Arg-{AMC})
Miniplasmin [3]
  Activity (mU/ml): 5.0 mU/ml

## Cc1cc(=O)oc2cc(NC(=O)[C@H](CCCNC(=N)N)NC(=O)c3ccccc3)ccc12 [Bz-Arg-MCA]
Miniplasmin [3]
  Activity (mU/ml): 0.0 mU/ml
  cleaving activity of miniplasmin toward the substrate: substantially no cleaving activity

## CC(C)C[C@H](NC(=O)[C@@H](NC(=O)N[C@@H](Cc1ccccc1)C(=O)O)C1CCN=C(N)N1)C(=O)N[C@H](C=O)Cc1ccccc1 (some centres unmarked) [Cymostatin]
Miniplasmin [1]; read-out: Relative activity
  activity at 10 µM: 100%

## CC(C)CC(NC(=O)C1OC1C(=O)O)C(=O)NCCCCNC(=N)N (centres unmarked) [E-64]
Miniplasmin [1]; read-out: Relative activity
  activity at 10 µM: 61.5%

## CC(C)C[C@H](NC(=O)N[C@H](C(=O)N[C@@H](CCC(N)=O)C(=O)N[C@@H](C)C=O)[C@@H]1CCNC(=N)N1)C(=O)O [Elastatinal]
Miniplasmin [1]; read-out: Relative activity
  activity at 10 µM: 69.2%

## CC(=O)N[C@@H](CC(C)C)C(=O)N[C@@H](CC(C)C)C(=O)N[C@H](C=O)CCCNC(=N)N [Leupeptin]
Miniplasmin [1]
  inhibition mark (circle / double circle): ⓞ Leupeptin
Miniplasmin [1]; read-out: Relative activity
  activity at 10 µM: 18.6%

## CC(C)CC(=O)N[C@H](C(=O)N[C@H](C(=O)N[C@@H](CC(C)C)[C@@H](O)CC(=O)N[C@@H](C)C(=O)N[C@@H](CC(C)C)[C@@H](O)CC(=O)O)C(C)C)C(C)C [Pepstatin A] (Isovaleryl-VV[Sta]A[Sta]-OH)
Miniplasmin [1]; read-out: Relative activity
  activity at 10 µM: 64%

## O=S(=O)(F)Cc1ccccc1 [Phenylmethylsulfonyl fluoride]
Miniplasmin [1]
  inhibition mark (circle / double circle): ○ Phenylmethylsulfonyl fluoride
Miniplasmin [1]; 1000 µM
  Relative activity: 95.1%
Miniplasmin [1]; 10000 µM
  Relative activity: 29.5%

## CC(C)C[C@H](NP(=O)(O)O[C@@H]1O[C@@H](C)[C@H](O)[C@@H](O)[C@H]1O)C(=O)N[C@@H](Cc1c[nH]c2ccccc12)C(=O)O [Phosphoramidon]
Miniplasmin [1]; read-out: Relative activity
  activity at 10 µM: 100%

## Cc1cc(=O)oc2cc(NC(=O)[C@H](CCCNC(=N)N)NC(=O)[C@H](Cc3ccccc3)NC(=O)[C@@H]3CCCN3)ccc12 [Pro-Phe-Arg-MCA] (H-Pro-Phe-Arg-{AMC})
Miniplasmin [3]
  Activity (mU/ml): 5.0 mU/ml

## Cc1cc(=O)oc2cc(NC(=O)[C@H](Cc3ccccc3)NC(=O)[C@@H]3CCCN3C(=O)[C@H](C)NC(=O)[C@H](C)NC(=O)CCC(=O)O)ccc12 [Suc-Ala-Ala-Pro-Phe-MCA] (Suc-AAPF-{AMC})
Miniplasmin [3]
  Activity (mU/ml): 0.0 mU/ml

## Cc1cc(=O)oc2cc(NC(=O)[C@H](Cc3ccc(O)cc3)NC(=O)[C@@H](NC(=O)[C@H](CC(C)C)NC(=O)[C@H](CC(C)C)NC(=O)CCC(=O)O)C(C)C)ccc12 [Suc-Leu-Leu-Val-Tyr-MCA] (Suc-LLVY-{AMC})
Miniplasmin [3]
  Activity (mU/ml): 0.0 mU/ml

## Boc-Ile-Gln-Gly-Arg-MCA (Boc-IQGR-{AMC})
Miniplasmin [3]
  Activity (mU/ml): 1.6 mU/ml
  cleaving activity of miniplasmin toward the substrate: substantially no cleaving activity
Miniplasmin [4]
  % (Activity as a percentage of that with Boc-Gln-Ala-Arg-MCA): 4.8%
